Reference: PubChem BioAssay (NCI)
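96-well plates; 48 h exposure; 5 concentrations. Endpoints by linear interpolation between flanking doses. Not reached: highest tested concentration assigned. GI50 marks 50% less growth. TGI denotes the concentration required for complete inhibition of growth.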

Assays:
Test in all cases: NCI-60 cell line screen, 48 h
[1] = system: UO-31 renal
[2] = system: NCI-H522 lung
[3] = system: SR leukemia
[4] = system: NCI-H460 lung
[5] = system: COLO 205 colon
[6] = system: KM12 colon
[7] = system: K-562 leukemia
[8] = system: SF-295 CNS
[9] = system: M14 melanoma
[10] = system: T-47D breast
[11] = system: DU-145 prostate
[12] = system: TK-10 renal
[13] = system: SK-MEL-5 melanoma
[14] = system: UACC-62 melanoma
[15] = system: SNB-75 CNS
[16] = system: 786-0 renal
[17] = system: A549 NSCLC
[18] = system: NCI-H226 lung
[19] = system: HT29 colon
[20] = system: HOP-62 NSCLC
[21] = system: OVCAR-3 ovarian
[22] = system: MALME-3M melanoma
[23] = system: HCT-15 colon
[24] = system: NCI/ADR-RES ovarian
[25] = system: OVCAR-8 ovarian
[26] = system: PC-3 prostate
[27] = system: RPMI-8226 leukemia
[28] = system: MDA-MB-231 breast
[29] = system: NCI-H23 lung
[30] = system: SW-620 colon
[31] = system: SNB-19 CNS
[32] = system: MOLT-4 leukemia
[33] = system: CCRF-CEM leukemia
[34] = system: LOX IMVI melanoma
[35] = system: U251 CNS
[36] = system: MDA-N
[37] = system: A498 renal
[38] = system: HCC-2998 colon
[39] = system: OVCAR-4 ovarian
[40] = system: RXF 393 renal
[41] = system: HOP-92 NSCLC
[42] = system: SK-MEL-2 melanoma
[43] = system: IGROV1 ovarian
[44] = system: SN12C renal
[45] = system: SF-268 CNS
[46] = system: HS 578T breast
[47] = system: HCT-116 colon
[48] = system: ACHN renal
[49] = system: OVCAR-5 ovarian
[50] = system: UACC-257 melanoma
[51] = system: MDA-MB-435
[52] = system: SK-MEL-28 melanoma
[53] = system: CAKI-1 renal
[54] = system: EKVX NSCLC
[55] = system: SK-OV-3 ovarian
[56] = system: SF-539 CNS
[57] = system: HL-60(TB) leukemia
[58] = system: MCF7 breast
[59] = system: BT-549 breast

O=S(=O)(c1ccccc1)n1c2ccc(Br)cc2c2nc3ccccc3nc21 was tested, and the TGI [1] was over 100 µM, the TGI [2] was over 100 µM and the TGI [3] was over 100 µM. The TGI [4] was over 100 µM, the TGI [5] was over 100 µM and the TGI [6] was over 100 µM. The TGI [7] was over 100 µM, the TGI [8] was over 100 µM and the TGI [9] was over 100 µM. The TGI [10] was over 100 µM, the TGI [11] was over 100 µM and the TGI [12] was over 100 µM. The TGI [13] was over 100 µM, the TGI [14] was over 100 µM and the TGI [15] was over 100 µM. For the same molecule, the TGI [16] was over 100 µM, the TGI [17] was over 100 µM and the TGI [18] was over 100 µM. It also gave a TGI [19] of over 100 µM, a TGI [20] of over 100 µM and a TGI [21] of over 100 µM. It also gave a TGI [22] of over 100 µM, a TGI [23] of over 100 µM and a TGI [24] of over 100 µM. It also gave a TGI [25] of over 100 µM, a TGI [26] of over 100 µM and a TGI [27] of over 100 µM. It also gave a TGI [28] of over 100 µM, a TGI [29] of over 100 µM and a TGI [30] of over 100 µM. It also gave a TGI [31] of over 100 µM, a TGI [32] of over 100 µM and a TGI [33] of over 100 µM. The TGI [34] was over 100 µM, the TGI [35] was over 100 µM and the TGI [36] was over 100 µM. It also gave a TGI [37] of over 100 µM, a TGI [38] of over 100 µM and a TGI [39] of over 100 µM. For the same molecule, the TGI [40] was over 100 µM, the TGI [41] was over 100 µM and the TGI [42] was over 100 µM. For the same molecule, the TGI [43] was over 100 µM, the TGI [44] was over 100 µM and the TGI [45] was over 100 µM. The TGI [46] was over 100 µM, the TGI [47] was over 100 µM and the TGI [48] was over 100 µM. For the same molecule, the TGI [49] was over 100 µM, the TGI [50] was over 100 µM and the TGI [51] was over 100 µM. For the same molecule, the TGI [52] was over 100 µM and the TGI [53] was over 100 µM.
In the case of O=C(CO[N+](=O)[O-])Nc1ccc(C(=O)/C=C/c2ccc(Cl)cc2)cc1, the GI50 [1] is reported as 1.52 µM, the TGI [1] is reported as 12.1 µM and the GI50 [2] is reported as 2.31 µM. For the same molecule, the TGI [2] was 8.37 µM, the GI50 [3] was 3.65 µM and the TGI [3] was over 100 µM. For the same molecule, the GI50 [4] was 12.7 µM, the TGI [4] was 54.9 µM and the GI50 [5] was 2.57 µM. It also gave a TGI [5] of 6.09 µM, a GI50 [6] of 1.54 µM and a TGI [6] of 3.1 µM. The GI50 [7] was 2.6 µM, the TGI [7] was over 100 µM and the GI50 [54] was 15 µM. For the same molecule, the TGI [54] was 74.6 µM, the GI50 [8] was 5.82 µM and the TGI [8] was 29.2 µM. It also gave a GI50 [9] of 2.05 µM, a TGI [9] of 4.96 µM and a GI50 [10] of 3.26 µM. The TGI [10] was 14.9 µM, the GI50 [11] was 3.41 µM and the TGI [11] was 13.5 µM. For the same molecule, the GI50 [12] was 8.37 µM, the TGI [12] was 25.1 µM and the GI50 [13] was 4.23 µM. It also gave a TGI [13] of 15.3 µM, a GI50 [14] of 2.76 µM and a TGI [14] of 11 µM. For the same molecule, the GI50 [15] was 3.19 µM, the TGI [15] was 17.6 µM and the GI50 [16] was 11.6 µM. The TGI [16] was 48 µM, the GI50 [17] was 5.71 µM and the TGI [17] was 20.6 µM. It also gave a GI50 [18] of 5.15 µM, a TGI [18] of 29 µM and a GI50 [19] of 2.36 µM. The TGI [19] was 6.36 µM, the GI50 [20] was 3.11 µM and the TGI [20] was 9.73 µM. For the same molecule, the GI50 [21] was 2.22 µM, the TGI [21] was 6.55 µM and the GI50 [55] was 10.1 µM. For the same molecule, the TGI [55] was 65.9 µM, the GI50 [22] was 2.13 µM and the TGI [22] was 6.61 µM. The GI50 [23] was 2.03 µM, the TGI [23] was 6.53 µM and the GI50 [56] was 2.52 µM. For the same molecule, the TGI [56] was 8.81 µM, the GI50 [24] was 3.87 µM and the TGI [24] was over 100 µM. For the same molecule, the GI50 [25] was 3.24 µM, the TGI [25] was 14 µM and the GI50 [57] was 3.59 µM. For the same molecule, the TGI [57] was over 100 µM, the GI50 [26] was 2.74 µM and the TGI [26] was 14.8 µM. The GI50 [27] was 1.41 µM, the TGI [27] was 8.36 µM and the GI50 [28] was 5.39 µM. The TGI [28] was 21.2 µM, the GI50 [29] was 4.55 µM and the TGI [29] was 22.1 µM. For the same molecule, the GI50 [30] was 1.44 µM, the TGI [30] was 2.88 µM and the GI50 [31] was 4.11 µM. It also gave a TGI [31] of 18.4 µM, a GI50 [32] of 4.68 µM and a TGI [32] of 69.4 µM. The GI50 [33] was 2.73 µM, the TGI [33] was 16.5 µM and the GI50 [34] was 1.59 µM. The TGI [34] was 3.51 µM, the GI50 [35] was 1.48 µM and the TGI [35] was 3.15 µM. The GI50 [37] was 15.4 µM, the TGI [37] was 54.9 µM and the GI50 [38] was 1.75 µM. For the same molecule, the TGI [38] was 3.64 µM, the GI50 [39] was 4.06 µM and the TGI [39] was 21 µM. It also gave a GI50 [40] of 4.82 µM, a TGI [40] of 17.8 µM and a GI50 [41] of 2.95 µM. For the same molecule, the TGI [41] was 15.2 µM, the GI50 [42] was 9.69 µM and the TGI [42] was 23.3 µM. It also gave a GI50 [43] of 13.4 µM, a TGI [43] of 30 µM and a GI50 [44] of 3.14 µM. For the same molecule, the TGI [44] was 14.1 µM, the GI50 [45] was 2.62 µM and the TGI [45] was 11.7 µM. The GI50 [46] was 2.85 µM, the TGI [46] was 14.2 µM and the GI50 [47] was 0.298 µM. The TGI [47] was 1.09 µM, the GI50 [48] was 3.3 µM and the TGI [48] was 17 µM. For the same molecule, the GI50 [58] was 0.666 µM, the TGI [58] was 6.44 µM and the GI50 [49] was 14.8 µM. It also gave a TGI [49] of 36 µM, a GI50 [50] of 4.33 µM and a TGI [50] of 15.9 µM. It also gave a GI50 [51] of 2.96 µM, a TGI [51] of 11.2 µM and a GI50 [52] of 4.96 µM. The TGI [52] was 18.1 µM, the GI50 [53] was 11.8 µM and the TGI [53] was 54.5 µM. For the same molecule, the GI50 [59] was 1.86 µM and the TGI [59] was 5 µM.
